According to patent US5880121A, “4,5-dihydronaphth (1,2-c) isoxazoles and derivatives thereof” (Hoechst Marion Roussel Inc., priority 1996, dated 1999):

Tests used:
5-HT3 Receptor = biological target: T1, 5-HT3 Receptor (Rattus norvegicus, UniProt P35563); test: ^3 H-GR 65630 Binding to Rat Entorhinal Cortex Membranes (affinity for 5-HT3 receptor); design: species or system Male Wistar rat; settings: 0.4 nM [^3 H]-GR65630, pH 7.4, 30 minutes at 37° C., read-out: IC50, Affinity for 5-HT3 Receptor-Displacement of ^3 H-GR 65630
T1 construct: Male Wistar rats (15-200 g) were decapitated, the entorhinal cortex removed, weighed and homogenized; from tissue; host or cells: entorhinal cortex membranes of male Wistar rats
T1 sequence (P35563 24-483): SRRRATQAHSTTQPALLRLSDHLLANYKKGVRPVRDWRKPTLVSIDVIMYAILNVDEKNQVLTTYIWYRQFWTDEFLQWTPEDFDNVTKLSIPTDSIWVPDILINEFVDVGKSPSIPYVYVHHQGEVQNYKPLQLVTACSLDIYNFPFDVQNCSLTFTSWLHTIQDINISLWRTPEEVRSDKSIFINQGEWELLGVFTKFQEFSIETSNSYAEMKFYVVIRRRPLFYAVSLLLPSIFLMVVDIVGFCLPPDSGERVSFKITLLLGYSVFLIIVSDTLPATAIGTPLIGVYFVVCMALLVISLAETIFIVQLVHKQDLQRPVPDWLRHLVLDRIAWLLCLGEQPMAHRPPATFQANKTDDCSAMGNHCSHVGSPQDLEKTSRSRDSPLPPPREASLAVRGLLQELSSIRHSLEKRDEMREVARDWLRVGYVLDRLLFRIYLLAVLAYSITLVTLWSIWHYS
Experimental: In accordance with the above-discussed assay, a 0.05M of Krebs-Hepes buffer, pH 7.4 was prepared as follows:
q.s. to 1 liter with distilled H2 O, bring pH up to 7.4 (at 4° C.) with 5N NaOH
[^3 H]-GR65630 (87.0 Ci/mmol) was obtained from New England Nuclear.
GR38032F was obtained from Research Biochemical Inc. GR38032F was made up to a concentration of 500 μM in Krebs-Hepes buffer. 50 μl of […] were added to each of 3 tubes for determination of nonspecific binding (yields a final concentration of 100 μM in the 250 μl assay).
For most assays, a 50 μM stock solution was prepared in a suitable solvent and serially diluted with Krebs-Hepes buffer such that when 50 μl of drug is combined with the total 250 μl assay, a final concentration from 10^-5 to 10^-8 M was attained.
During tissue preparation, Male Wistar rats ([…]) were decapitated, the entorhinal cortex removed, weighed and homogenized in 10 volumes of ice cold 0.05M Krebs-Hepes buffer, pH 7.4. The homogenate is centrifuged at 48,000 g for 15 minutes at 4° C. The resulting pellet was rehomogenized in fresh Krebs-Hepes buffer and recentrifuged at 48,000 g for 15 minutes at 4° C. The final pellet was resuspended in the original volume of ice-cold Krebs-Hepes buffer. This yielded a final tissue concentration of 1.2 to 1.6 mg/ml with the addition of 100 μl to the assay.
In conducting the assay, the following volumes were utilized:
Sample tubes were kept on ice for additions, then vortexed and incubated with continuous shaking for 30 minutes at 37° C. At the end of the incubation period, the incubate is diluted with 5 ml of ice-cold Krebs-Hepes buffer and immediately vacuum filtered through Whatman GF/B filters, followed by two 5 ml washes with ice-cold Krebes-Hepes buffer. The filters are dried and counted in 10 ml of liquid scintillation cocktail. […] IC50 values were derived from computer-derived log-probit analysis.

5-HT3 = test: 5 HT3 antagonist effects in the Bezold-Jarisch assay (reflex bradycardia, anesthetized Long-Evans rat); assay type: in vivo; settings: ip, mean ± SEM, 2-3 rats/dose
Excerpt: Measurement of 5 HT3 Antagonist Effects in the Bezold-Jarisch Assay
This assay evaluates the effect of these compounds as 5-HT3 antagonists. They were examined in this assay on the coronary chemoreflex (Bezold-Jarisch) initiated by […] in vivo and characterized by leading inhibition of sympathetic outflow and increased activity of the cardiac vagus, leading to profound bradycardia and hypotension. The values obtained allow for continuous monitoring of arterial pressure and heart rate responses by these compounds over an extended period of time to determine their effecicy for 5 HT3 antagonism.
The catheters were prepared from Tygon tubing (45 cm length, […], ID) bonded to Teflon tubing (0.38 mm, ID). The mechanical bonding was achieved by insertion of the Teflon tubing (5 mm) into the dilated (ethylene dichloride, 3-4 min.) tip of the Tygon tubing. The junction was then sealed with vinyl glue, the catheters were soaked in cold sterilization solution (Amerse instrument germicide) and flushed thoroughly with saline prior to implantation.
Long Evans rats were anesthetized with sodium pentobarbital (50 mg/kg, ip). […] The catheters were then sutured to the underlying muscle and the free ends were passed subcutaneously and exteriorized through an incision on the top of the skull. The catheters were then secured to the skin with sutures, nitrofurazone powder was dusted over the area of the incision and the incision was closed using 3-O silk sutures. The catheters were flushed with saline and sealed with metal obturators. Patentcy of the two catheters was maintained by daily flushing with hepranized saline (0.2 ml of 100 U/ml). The rats were given 48 hours recovery prior to obtaining cardiovascular data.
In the anesthetized rat model the catheters were not exteriorized, data was collected acutely under the influence of general anesthesia.
The baseline data Arterial Blood Pressure (mm Hg, systolic/diastolic) and Heart Rate (beats/min) were recorded and the rats were injected with 5-HT (3-7.5 ug/kg, iv). The individual response to the 5-HT intervention was determined and the compound was then administered singlely or in an ascending dose range. The rats were challenged with 5-HT again at intervals postdosing and the peak response was recorded.

| Structure (SMILES) | IC50 (5-HT3 Receptor) | % Inhibition of Bezold-Jarisch Reflex (5-HT3; 0.03 mg/kg) | % Inhibition of Bezold-Jarisch Reflex (5-HT3; 0.05 mg/kg) | % Inhibition of Bezold-Jarisch Reflex (5-HT3; 0.10 mg/kg) | % Inhibition of Bezold-Jarisch Reflex (5-HT3; 3.0 mg/kg) | % Inhibition of Bezold-Jarisch Reflex (5-HT3; 10.0 mg/kg) | % Inhibition of Bezold-Jarisch Reflex (5-HT3; 1.0 mg/kg) |
| --- | --- | --- | --- | --- | --- | --- | --- |
| c1ccc2c(c1)CCc1c-2noc1N1CCCNCC1 [Ex. 4, 3-(1-Homopiperazinyl)-4,5-dihydronaphth[1,2-c]isoxazole] | 83 nM | 58.6 ± 16.4% | 83.3 ± 8.2% | 93.0 ± 1.0% |  |  |  |
| OCCN1CCN(c2onc3c2CCc2ccccc2-3)CC1 [Ex. 3, 3-(4-(2-Hydroxyethyl)-1-piperazinyl)-4,5-dihydronaphth[1,2-c]isoxazole] | 868 nM |  |  |  |  |  |  |
| Cc1nccn1CC1CCc2c(c3ccccc3n2C)C1=O (stereo not shown) [Ondansetron, reference compound] |  |  |  |  | 57.3 ± 9.7% | 94.6 ± 2.7% |  |
| c1ccc2c(c1)CCc1c-2noc1N1CCNCC1 [Ex. 5, 3-(1-Piperazinyl)-4,5-dihydronaphth[1,2-c]isoxazole] | 56 nM |  |  |  | 89.3 ± 2.9% |  | 55.6 ± 9.7% |
